Measurements published in patent US12637471B2, “Heterocyclic compounds, compositions, methods of preparation and uses thereof” (Organon R&D Finland Ltd, priority 2021, dated 2026).

Columns and labels:
Format in all cases: biochemical
[1] = target: T1, Recombinant human AKR1C3 (17β-HSD5) protein (Homo sapiens, UniProt P42330); assay: Inhibition of AKR1C3 (17β-hydroxysteroid dehydrogenase type 5) enzyme, fluorescence assay; conditions: inhibitor at 500 nM
T1 construct: made in house; host or cells: E. coli
T1 sequence (P42330 1-323): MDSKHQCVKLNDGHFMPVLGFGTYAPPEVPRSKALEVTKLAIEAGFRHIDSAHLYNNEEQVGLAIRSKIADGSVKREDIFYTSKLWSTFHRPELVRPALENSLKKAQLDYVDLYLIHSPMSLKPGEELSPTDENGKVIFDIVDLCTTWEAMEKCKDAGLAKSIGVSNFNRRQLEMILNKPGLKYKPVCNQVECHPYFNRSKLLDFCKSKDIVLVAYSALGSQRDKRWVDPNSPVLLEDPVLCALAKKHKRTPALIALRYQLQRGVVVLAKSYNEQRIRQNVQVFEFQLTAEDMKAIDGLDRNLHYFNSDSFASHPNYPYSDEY
Method in brief: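 Percent inhibition at 500 nM compound, derived from substrate conversion; product alcohol measured by fluorescence (ex 420, em 510 nm) against a 1 μM–10 nM standard curve. Reaction: 27 nM recombinant AKR1C3, 1 μM ketone substrate, 1 mM NADPH, phosphate/EDTA buffer pH 7.4, 1% DMSO, RT for 60–120 min.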

[2] = target: T2, Recombinant human aldo-keto reductase family 1 member C2 (AKR1C2) protein (Homo sapiens, UniProt P52895); assay: Inhibition of the aldo-keto reductase family 1 member C2, 3H-dihydrotestosterone conversion; conditions: inhibitor at 10 μM
T2 construct: made in house; host or cells: Sf-9 insect cells (baculovirus)
T2 sequence (P52895 1-323): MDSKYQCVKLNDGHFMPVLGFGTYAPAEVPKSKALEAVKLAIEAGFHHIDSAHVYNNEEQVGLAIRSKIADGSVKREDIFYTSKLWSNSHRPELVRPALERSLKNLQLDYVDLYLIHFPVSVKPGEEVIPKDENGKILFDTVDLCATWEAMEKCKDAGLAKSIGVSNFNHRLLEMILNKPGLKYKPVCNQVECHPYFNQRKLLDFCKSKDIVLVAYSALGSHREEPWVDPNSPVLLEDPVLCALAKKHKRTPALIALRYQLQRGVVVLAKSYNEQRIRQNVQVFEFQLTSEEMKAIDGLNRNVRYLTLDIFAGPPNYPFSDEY
Method in brief: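 Single-point screen at 10 μM inhibitor, 1% DMSO: [3H]DHT (6.25 nM) reduction to 3α-diol by baculovirus-made AKR1C2 (13.6 nM), pH 7.4 phosphate buffer, 1 mM NADPH, 37 °C for 45 min. Radio-UPLC quantified product versus substrate to give percent inhibition.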

[3] = target: T3, 17β-Hydroxysteroid Dehydrogenase Type 2 Enzyme (17β-HSD2) (Homo sapiens, UniProt P37059); assay: Inhibition of the 17β-hydroxysteroid dehydrogenase type 2 enzyme, 3H-testosterone conversion; conditions: inhibitor at 10 μM
T3 construct: made in house; host or cells: Sf-9 insect cells (baculovirus)
T3 sequence (P37059 1-387): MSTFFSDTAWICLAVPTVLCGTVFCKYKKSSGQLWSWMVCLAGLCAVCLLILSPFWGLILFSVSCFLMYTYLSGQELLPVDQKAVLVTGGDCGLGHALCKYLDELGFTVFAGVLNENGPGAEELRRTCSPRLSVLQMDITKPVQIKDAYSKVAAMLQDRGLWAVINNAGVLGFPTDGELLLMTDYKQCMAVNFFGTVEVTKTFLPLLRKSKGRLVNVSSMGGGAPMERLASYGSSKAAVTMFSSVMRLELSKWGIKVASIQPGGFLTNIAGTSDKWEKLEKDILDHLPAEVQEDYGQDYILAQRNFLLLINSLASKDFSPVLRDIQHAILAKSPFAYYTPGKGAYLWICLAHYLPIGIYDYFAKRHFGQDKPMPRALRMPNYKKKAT
Method in brief: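 Single-point screen at 10 μM inhibitor, 1% DMSO: Sf-9-expressed human enzyme (105 nM), NAD 1 mM, ³H-labelled testosterone 56.25 nM, pH 8.5 phosphate/EDTA buffer, 30 min, room temperature. After TCA quench, substrate and product radioactivity quantified by UPLC with scintillation detection; inhibition percent from conversion.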

Row | inhibition at 0.5 µM [1] [%] | inhibition at 10 µM [2] [%] | inhibition at 10 µM [3] [%] | SMILES
1 | 97 | 18 | 6 | CCOC1CCN(C(=O)N2CCC(=C(C#N)c3ccc(F)cc3F)CC2)CC1 [Compound 137, 2-(2,4-difluorophenyl)-2-(1-(4-ethoxypiperidine-1-carbonyl)piperidin-4-ylidene)acetonitrile]
2 | 93 | 8 | 27 | CC(C)OC1CCN(C(=O)N2CCC(=C(C#N)c3cccc(Cl)c3)CC2)CC1 [Compound 139, 2-(3-chlorophenyl)-2-(1-(4-isopropoxypiperidine-1-carbonyl)piperidin-4-ylidene)acetonitrile]
3 | 96 | 21 | 23 | N#CC(=C1CCN(C(=O)N2CCC(CCO)CC2)CC1)c1cccc(Cl)c1 [Compound 140, 2-(3-chlorophenyl)-2-(1-(4-(2-hydroxyethyl)piperidine-1-carbonyl)piperidin-4-ylidene)acetonitrile]
4 | 100 | 5 | 16 | COC1CCN(C(=O)N2CCC(=C(C#N)c3cccc4[nH]ncc34)CC2)CC1 [Compound 144, 2-(1H-indazol-4-yl)-2-(1-(4-methoxypiperidine-1-carbonyl)piperidin-4-ylidene)acetonitrile]
5 | 100 | 2 | 15 | COC1CCN(C(=O)N2CCC(=C(C#N)c3ccc(C(F)(F)F)cc3)CC2)CC1 [Compound 146, 2-(1-(4-methoxypiperidine-1-carbonyl)piperidin-4-ylidene)-2-(4-(trifluoromethyl)phenyl)acetonitrile]
6 | 95 | 14 | 26 | COCC1CCN(C(=O)N2CCC(=C(C#N)c3cccc(Cl)c3)CC2)CC1 [Compound 153, 2-(3-chlorophenyl)-2-(1-(4-(methoxymethyl)piperidine-1-carbonyl)piperidin-4-ylidene)acetonitrile]
7 | 98 | 14 | 26 | CC(O)C1CCN(C(=O)N2CCC(=C(C#N)c3cccc(Cl)c3)CC2)CC1 (stereo not drawn) [Compound 154, 2-(3-chlorophenyl)-2-(1-(4-(1-hydroxyethyl)piperidine-1-carbonyl)piperidin-4-ylidene)acetonitrile]
8 | 99 | 21 | 19 | N#CC(=C1CCN(C(=O)N2CCn3nncc3C2)CC1)c1cccc(Cl)c1 [Compound 155, 2-(3-chlorophenyl)-2-(1-(4,5,6,7-tetrahydro-[1,2,3]triazolo[1,5-a]pyrazine-5-carbonyl)piperidin-4-ylidene)acetonitrile]

Second part, the compound before the results:

Row | SMILES | inhibition at 0.5 µM [1] [%] | inhibition at 10 µM [2] [%] | inhibition at 10 µM [3] [%]
9 | Cn1ncc2cccc(C(C#N)=C3CCN(C(=O)N4CCc5nocc5C4)CC3)c21 [Compound 136, 2-(1-methyl-1H-indazol-7-yl)-2-(1-(4,5,6,7-tetrahydroisoxazolo[4,3-c]pyridine-5-carbonyl)piperidin-4-ylidene)acetonitrile] | 99 | 6 | 26
10 | N#CC(=C1CCN(C(=O)N2CCc3nocc3C2)CC1)c1cccc2[nH]ncc12 [Compound 138, 2-(1H-indazol-4-yl)-2-(1-(4,5,6,7-tetrahydroisoxazolo[4,3-c]pyridine-5-carbonyl)piperidin-4-ylidene)acetonitrile] | 98 | 31 | 13
11 | N#CC(=C1CCN(C(=O)N2CCc3nocc3C2)CC1)c1ccc(Cl)cc1 [Compound 141, 2-(4-chlorophenyl)-2-(1-(4,5,6,7-tetrahydroisoxazolo[4,3-c]pyridine-5-carbonyl)piperidin-4-ylidene)acetonitrile] | 98 | 33 | 7
12 | N#CC(=C1CCN(C(=O)N2CCC(CCCO)CC2)CC1)c1ccc(F)cc1 [Compound 142, 2-(4-fluorophenyl)-2-(1-(4-(3-hydroxypropyl)piperidine-1-carbonyl)piperidin-4-ylidene)acetonitrile] | 91 | 3 | 4
13 | CC(=O)N1CCN(C(=O)N2CCC(=C(C#N)c3ccc(F)cc3)CC2)CC1 [Compound 143, 2-(1-(4-acetylpiperazine-1-carbonyl)piperidin-4-ylidene)-2-(4-fluorophenyl)acetonitrile] | 93 | 9 | 7
14 | N#CC(=C1CCN(C(=O)N2CCC(C(F)(F)F)CC2)CC1)c1cccc2[nH]ncc12 [Compound 145, 2-(1H-indazol-4-yl)-2-(1-(4-(trifluoromethyl)piperidine-1-carbonyl)piperidin-4-ylidene) acetonitrile] | 97 | 1 | 9
15 | N#CC(=C1CCN(C(=O)N2CCOCC2)CC1)c1ccc(C(F)(F)F)cc1 [Compound 147, 2-(1-(morpholine-4-carbonyl)piperidin-4-ylidene)-2-(4-(trifluoromethyl)phenyl)acetonitrile] | 99 | 5 | 4
16 | N#CC(=C1CCN(C(=O)N2CCC(S(N)(=O)=O)CC2)CC1)c1ccc(C(F)(F)F)cc1 [Compound 148, 1-(4-(cyano(4-(trifluoromethyl)phenyl)methylene)piperidine-1-carbonyl)piperidine-4-sulfonamide] | 90 | 6 | 7
17 | N#CC(=C1CCN(C(=O)N2CCC(CCO)CC2)CC1)c1ccc(C(F)(F)F)cc1 [Compound 149, 2-(1-(4-(2-hydroxyethyl)piperidine-1-carbonyl)piperidin-4-ylidene)-2-(4-(trifluoromethyl)phenyl)acetonitrile] | 94 | 7 | 9
18 | N#CC(=C1CCN(C(=O)N2CCn3nncc3C2)CC1)c1ccc(C(F)(F)F)cc1 [Compound 150, 2-(1-(4,5,6,7-tetrahydro-[1,2,3]triazolo[1,5-a]pyrazine-5-carbonyl)piperidin-4-ylidene)-2-(4-(trifluoromethyl)phenyl)acetonitrile] | 100 | 21 | 6
19 | CC(O)C1CCN(C(=O)N2CCC(=C(C#N)c3ccc(C(F)(F)F)cc3)CC2)CC1 (stereo not drawn) [Compound 151, 2-(1-(4-(1-hydroxyethyl)piperidine-1-carbonyl)piperidin-4-ylidene)-2-(4-(trifluoromethyl)phenyl)acetonitrile] | 93 | 11 | 18
20 | N#CC(=C1CCN(C(=O)N2CCn3ncnc3C2)CC1)c1ccc(C(F)(F)F)cc1 [Compound 152, 2-(1-(5,6,7,8-tetrahydro-[1,2,4]triazolo[1,5-a]pyrazine-7-carbonyl)piperidin-4-ylidene)-2-(4-(trifluoromethyl)phenyl)acetonitrile] | 99 | 4 | 8
21 | N#CC(=C1CCN(C(=O)N2C3CCC2COC3)CC1)c1cccc(Cl)c1 [Compound 156, 2-(1-(3-oxa-8-azabicyclo[3.2.1]octane-8-carbonyl)piperidin-4-ylidene)-2-(3-chlorophenyl)acetonitrile] | 99 | 8 | 12
